Results as given in ChEMBL document CHEMBL6103613 (J Med Chem, 2025).
In brackets after ≈: the same amount, converted by molar mass. Activity calls are given as the source filed them. The calls are words filed in the database; no cut-off is given here.

Tests used:
[1] = Hemolytic activity against mouse Red blood cells at 100 microg/ml incubated for 1 hr relative to control; assay type: toxicity, cell-based, Erythrocyte; conditions: at 100 µg/mL, read-out: Activity
Staphylococcus aureus [2] = assay: Antimicrobial activity against methicillin-resistant Staphylococcus aureus clinical isolate 3 assessed as inhibition of visible bacterial growth incubated for 18 hrs by CLSI based analysis; assay type: functional
Cell membrane [3] = assay: Disruption of cell membrane integrity in Staphylococcus aureus at 4 times of MIC incubated for 30 mins by Propidium iodide staining based analysis; assay type: subcellular
Staphylococcus aureus [4] = assay: Antibacterial activity against methicillin-resistant Staphylococcus aureus infected in kunming mouse pneumonia model assessed as decrease in IL-6 expression in lung at 5 mg/kg, ip measured upto 8 days; assay type: functional, organism-based; conditions: time <= 8.0 day
Cell membrane [5] = assay: Disruption of cell membrane integrity in Staphylococcus aureus at 4 times of MIC incubated for 1 mins by Propidium iodide staining based analysis; assay type: subcellular
Peptidoglycan [6] = assay: Binding affinity to Staphylococcus aureus peptidoglycan assessed as change in enthalpy by ITC analysis
Staphylococcus aureus [7] = assay: Antimicrobial activity against methicillin-resistant Staphylococcus aureus ATCC 43300 assessed as inhibition of visible bacterial growth incubated for 18 hrs by CLSI based analysis; assay type: functional
Staphylococcus aureus [8] = assay: Antimicrobial activity against methicillin-resistant Staphylococcus aureus clinical isolate 4 assessed as inhibition of visible bacterial growth incubated for 18 hrs by CLSI based analysis; assay type: functional
Staphylococcus aureus [9] = assay: Antimicrobial activity against Staphylococcus aureus incubated for 0.5 hrs in presence of NA+; assay type: functional, organism-based
Staphylococcus aureus [10] = assay: Antibiofilm activity in Staphylococcus aureus assessed as biofilm eradication at 8 times MIC relative to control; assay type: functional
Staphylococcus aureus [11] = assay: Upregulation of catalase expression in Staphylococcus aureus at 12.5 microg/ml incubated for 3 hrs by RNA sequencing analysis; assay type: functional, organism-based; conditions: dose 12.5 µg/ml
Staphylococcus aureus [12] = assay: Antimicrobial activity against Staphylococcus aureus at pH 5.4 to 6.4 incubated for 0.5 hrs; assay type: functional, organism-based
Staphylococcus aureus [13] = assay: Antibacterial activity against methicillin-resistant Staphylococcus aureus infected in kunming mouse pneumonia model assessed as decrease in TNF-alpha expression in lung at 5 mg/kg, ip measured upto 8 days; assay type: functional, organism-based; conditions: time <= 8.0 day
Escherichia coli = assay: Antimicrobial activity against Escherichia coli assessed as inhibition of visible bacterial growth incubated for 18 hrs by CLSI based analysis; assay type: functional
Staphylococcus aureus [14] = assay: Antimicrobial activity against Staphylococcus aureus assessed as inhibition of visible bacterial growth incubated for 18 hrs by CLSI based analysis; assay type: functional
Staphylococcus aureus [15] = assay: Induction of ROS production in Staphylococcus aureus assessed as increase in fluorescence intensity at 4 times MIC by DCFH-DA probe based assay; assay type: functional, organism-based
[16] = Toxicity in mouse assessed as signs of drowsiness at 50 mg/kg, ip measured for 7 days; assay type: organism-based; conditions: in vivo, 168 h, time 7 day
Staphylococcus aureus [17] = assay: Upregulation of TarF expression in Staphylococcus aureus at 12.5 microg/ml incubated for 3 hrs by RNA sequencing analysis; assay type: functional; conditions: dose 12.5 µg/ml
Peptidoglycan [18] = assay: Binding affinity to Staphylococcus aureus peptidoglycan assessed as change in entropy by ITC analysis
Cell membrane [19] = assay: Disruption of cell membrane integrity in Staphylococcus aureus at 4 times of MIC incubated upto 20 mins by fluorescence microscopic analysis; assay type: subcellular
Staphylococcus aureus [20] = assay: Antimicrobial activity against Staphylococcus aureus incubated for 0.5 hrs in presence of K+; assay type: functional, organism-based
[21] = Toxicity in mouse assessed as change in water intake at 50 mg/kg, ip measured for 7 days; assay type: organism-based; conditions: in vivo, 168 h, time 7 day
Staphylococcus aureus [22] = assay: Antimicrobial activity against Staphylococcus aureus ATCC 25923 incubated for 1 hr in presence of PE; assay type: functional
[23] = Hemolytic activity against mouse Red blood cell incubated for 1 hr; assay type: toxicity, cell-based; conditions: erythrocyte
RAW264.7 = assay: Cytotoxicity against mouse RAW264.7 cells assessed as cell viability at 6.25 to 100 microg/ml incubated for 24 hrs by MTT assay; assay type: toxicity, cell-based; conditions: raw264.7, 24 h
Staphylococcus aureus [24] = assay: Antimicrobial activity against Staphylococcus aureus at 100 degreeC incubated for 0.5 hrs; assay type: functional, organism-based
Staphylococcus aureus [25] = assay: Antimicrobial activity against Staphylococcus aureus incubated for 0.5 hrs in presence of Ca2+; assay type: functional, organism-based
Staphylococcus aureus [26] = assay: Inhibition of biofilm formation in Staphylococcus aureus at 1 to 16 times MIC by crystal violet staining based analysis; assay type: functional
[27] = Stability of compound in mouse serum measured after 24 hrs; assay type: ADME, cell-free
[28] = Toxicity in mouse assessed as liver damage at 50 mg/kg, ip measured for 7 days by H and E staining based analysis; assay type: organism-based; conditions: in vivo, 168 h, time 7 day
Staphylococcus aureus [29] = assay: Antibacterial activity against methicillin-resistant Staphylococcus aureus infected in kunming mouse pneumonia model assessed as decrease in IL-10 expression in lung at 5 mg/kg, ip measured upto 8 days; assay type: functional, organism-based; conditions: time <= 8.0 day
[30] = Toxicity in mouse assessed as lung damage at 50 mg/kg, ip measured for 7 days by H and E staining based analysis; assay type: organism-based; conditions: in vivo, 168 h, time 7 day
Enterococcus faecalis = assay: Antimicrobial activity against Enterococcus faecalis ATCC 19433 assessed as inhibition of visible bacterial growth incubated for 18 hrs by CLSI based analysis; assay type: functional

CC(C)[C@@H]1NC(=O)[C@@H](C(C)C)NC(=O)[C@H](C(C)C)NC(=O)[C@@H](CCCCN)NC(=O)[C@H](Cc2c(C(c3ccccc3)(c3ccccc3)c3ccccc3)[nH]c3ccccc23)NC(=O)[C@@H](C(C)C)NC(=O)[C@@H]2CSC1N2
hemolysis at 1 h, 100 microg/ml [1]: < 5% | MIC (Staphylococcus aureus [2]): 12.5 µg/mL (≈ 12 µM) | Activity (Cell membrane [3]): 46.7% | Activity (Staphylococcus aureus [4]): Active | Activity (Cell membrane [5]): 26.2% | deltaH (Peptidoglycan [6]): 3.87 kJ/mol | MIC (Staphylococcus aureus [7]): 6.25 µg/mL (≈ 6.01 µM) | MIC (Staphylococcus aureus [8]): 6.25 µg/mL (≈ 6.01 µM) | Activity (Staphylococcus aureus [9]): Active | Activity (Staphylococcus aureus [10]): 90% | Activity (Staphylococcus aureus [11]): Active | Activity (Staphylococcus aureus [12]): Active | Activity (Staphylococcus aureus [13]): Active | MIC (Escherichia coli): 3.13 µg/mL (≈ 3.01 µM) | MIC (Staphylococcus aureus [14]): 3.13 µg/mL (≈ 3.01 µM) | Activity (Staphylococcus aureus [15]): Active | Activity [16]: Non-toxic | Activity (Staphylococcus aureus [17]): Active | TdeltaS (Peptidoglycan [18]): 31.6 kJ/mol | Activity (Cell membrane [19]): Active | Activity (Staphylococcus aureus [20]): Active | Activity [21]: Non-toxic | MIC (Staphylococcus aureus [22]): > 50 µg/mL | HC5 [23]: > 100 µg/mL | Activity (RAW264.7): Non-toxic | Activity (Staphylococcus aureus [24]): Active | Activity (Staphylococcus aureus [25]): Active | inhibition (INH) (Staphylococcus aureus [26]): ~100% | Stability [27]: Stable | Activity [28]: Non-toxic | Activity (Staphylococcus aureus [29]): Active | Activity [30]: Non-toxic | MIC (Enterococcus faecalis): 12.5 µg/mL (≈ 12 µM)
